Measured values published in article PMC10094617, “Iron(III) Complexes with Non-Steroidal Anti-Inflammatory Drugs: Structure, Antioxidant and Anticholinergic Activity, and Interaction with Biomolecules” (International Journal of Molecular Sciences, 2023).
Counter-ions that a name gives are not always drawn.

Columns and labels:
[1] = Competition with DMSO for hydroxyl radicals; assay type: biochemical; settings: compound 0.1 mM; 30 min, 37 °C, pH 7.4
Protocol: (§1) The antioxidant activity of complexes 1–3 was evaluated via their ability to scavenge the free radicals DPPH, hydroxyl, and ABTS. Each experiment was performed in triplicate and the standard deviation of absorbance was less than 10% of the mean.
Competition of the tested compounds with DMSO for hydroxyl radicals: The hydroxyl radicals generated by the Fe^3+/ascorbic acid system were detected according to Nash by the determination of formaldehyde produced from the oxidation of DMSO [155]. The reaction mixture contained EDTA (0.1 mM), Fe^3+ (167 μM), DMSO (33 mM) in phosphate buffer (50 mM, pH 7.4), complexes 1–3 (concentration 0.1 mM), and ascorbic acid (10 mM). After a 30-min incubation at 37 °C, the reaction was stopped with CCl3COOH (17% w/v) and the absorbance at λ = 412 nm was measured. Trolox was used as a reference compound. The competition of the compounds with DMSO for •OH, generated by the Fe^3+/ascorbic acid system, expressed as the percentage of inhibition of formaldehyde production, was used for the evaluation of their hydroxyl radical-scavenging activity (OH%).

[2] = ABTS radical cation scavenging; assay type: biochemical; settings: compound 0.1 mM; 1 min after mixing
Protocol: as §1
Assay of radical cation scavenging activity (ABTS^+•): An ABTS cationic radical (ABTS^+•) was produced by reacting an aqueous stock solution (2 mM) of ABTS with 0.17-mM potassium persulfate and allowing the mixture to stand in the dark at room temperature for 12–16 h before use. […] Although the oxidation of ABTS commenced immediately, the absorbance became maximal and stable after 6 h. The radical was stable in this form for more than two days when stored in the dark at room temperature. The ABTS radical solution was diluted with ethanol to an absorbance of 0.70 at 734 nm. After the addition of 10 μL of complexes 1–3 or the standards (0.1 mM) in DMSO, the absorbance was recorded exactly 1 min after initial mixing. The radical scavenging activity of the complexes was expressed as the percentage inhibition of the absorbance of the initial ABTS solution (ABTS%). Trolox was used as a reference compound.

[3] = biological target: T1, equine serum butyrylcholinesterase (eqBuChE) (Equus caballus, UniProt P81908); experiment: Inhibition of butyrylcholinesterase (modified Ellman's method); assay type: biochemical; settings: for inhibition at 1000 µM: read-out: BuChE (I%) inhibition rate; for SI (selectivity index = IBuChE/IAChE): ratio of inhibition rates at 10^−3 M
T1 construct: purchased J&K Scientific Co. (Beijing, China); host or cells: equine serum (by the product's name)
Protocol: (§2) In the study of cholinesterase inhibitors, the inhibitory effect of the compounds (the NSAIDs and their complexes 1–3) against AChE and BuChE was examined using a modified methodology based on Ellman’s method.
(§3) The ability of the compounds to inhibit AChE and BuChE was evaluated using UV-vis spectroscopy. All the assays were carried out in a 0.1M NaH2PO4/Na2HPO4 buffer at a pH = 7.4. Enzyme solutions were prepared with 2.0 U/mL for AChE and 3.0 U/mL for BuChE. A reaction mixture containing 20 μL of phosphate buffer, 100 μL of DTNB (1-mM), and 40 μL of the enzyme (AChE and BuChE) was incubated with 20 μL of the compounds at various concentrations at 37 °C for 15 min. The reaction was started by the addition of the substrate (20-μL) of ATCI or BTCI solution (1-mM), respectively, and incubation for additional 3 min.
(§4) The enzyme activity was determined by measuring the increase in absorbance at 2-min intervals at 412 nm at 37 °C (ε = 14,150 M^−1cm^−1).
The rate of inhibition of each enzyme by the compounds was calculated according to the following expression:(1) I%=(1−VB/VA)×100 where VB and VA indicate the absorbance measured for ChEs in the presence and absence of inhibitors, respectively. […] Neostigmine methyl sulfate was used as the appropriate standard.

EB–DNA adduct (CT DNA) = experiment: EB-displacement from EB–DNA adduct (fluorescence emission); assay type: binding, calf
Protocol: EB-displacement studies: The competition of complexes 1–3 with EB was investigated by fluorescence emission spectroscopy in order to examine whether the complexes can displace EB from its DNA–EB conjugate. The DNA–EB conjugate was prepared by adding 20-μM EB and 26-μM CT DNA in the buffer solution (150-mM NaCl and 15-mM trisodium citrate at pH 7.0). The possible intercalating effect of the complexes was studied by the addition of a certain amount of a solution of the compound into a solution of the DNA–EB conjugate. The influence of each compound to the DNA–EB complex solution was obtained by recording the changes in the fluorescence emission spectra with the excitation wavelength (λex) at 540 nm.
The Stern–Volmer constant KSV is used to evaluate the quenching efficiency for each compound according to the Stern–Volmer equation (Equation (3)), where Io and I are the emission intensities in the absence and the presence of the quencher, respectively, and [Q] is the concentration of the quencher (i.e., complexes 1–3). The value of KSV is obtained from the Stern–Volmer plots by using the slope of the diagram Io/I versus [Q]. Taking τo = 23 ns as the fluorescence lifetime of the EB–DNA system, the EB–DNA quenching constants (Kq, in M^−1s^−1) of the compounds can be determined according to Equation (4).

DPPH radical scavenging = assay type: biochemical; settings: compound 0.1 mM, ethanol
Protocol: as §1
Ethanol was also used as a control solution. The absorbance at 517 nm was recorded at room temperature, two times, after 20 and 60 min, in order to examine the time-dependence of the DPPH-scavenging activity. The DPPH-scavenging activity of the compounds was expressed as the percentage reduction of the absorbance values of the initial DPPH solution (RA%). The compounds NDGA and BHT were used as reference compounds.

[4] = Solubility of the complexes; assay type: physicochemical
[5] = biological target: T2, electric eel acetylcholinesterase (eeAChE) (Electrophorus electricus, UniProt O42275); experiment: Inhibition of acetylcholinesterase (modified Ellman's method); assay type: biochemical; settings: 10^−3 M of the compound, pH 7.4, 37 °C; for inhibition at 1000 µM: read-out: AChE (I%) inhibition rate
T2 construct: purchased J&K Scientific Co. (Beijing, China)
Protocol: as §2, §3, §4
The rate of inhibition of each enzyme by the compounds was calculated according to the following expression:(1) I%=(1−VB/VA)×100 where VB and VA indicate the absorbance measured for ChEs in the presence and absence of inhibitors, respectively. The results are expressed as the average of three repetitions of the tests performed and the standard deviation was less than 3% of the mean. The selectivity index (SI), defined as IC50 BuChE/IC50 AChE, was also calculated. Neostigmine methyl sulfate was used as the appropriate standard.

[6] = set-up: method as in PMID 8216032; settings: cited from earlier work
calf-thymus (CT) DNA = biological target: calf-thymus (CT) DNA; set-up: method as in PMID 3427013; settings: cited from earlier work
[7] = 10^−3 M of the compound, pH 7.4, 37 °C

T2 sequence (O42275 24-633): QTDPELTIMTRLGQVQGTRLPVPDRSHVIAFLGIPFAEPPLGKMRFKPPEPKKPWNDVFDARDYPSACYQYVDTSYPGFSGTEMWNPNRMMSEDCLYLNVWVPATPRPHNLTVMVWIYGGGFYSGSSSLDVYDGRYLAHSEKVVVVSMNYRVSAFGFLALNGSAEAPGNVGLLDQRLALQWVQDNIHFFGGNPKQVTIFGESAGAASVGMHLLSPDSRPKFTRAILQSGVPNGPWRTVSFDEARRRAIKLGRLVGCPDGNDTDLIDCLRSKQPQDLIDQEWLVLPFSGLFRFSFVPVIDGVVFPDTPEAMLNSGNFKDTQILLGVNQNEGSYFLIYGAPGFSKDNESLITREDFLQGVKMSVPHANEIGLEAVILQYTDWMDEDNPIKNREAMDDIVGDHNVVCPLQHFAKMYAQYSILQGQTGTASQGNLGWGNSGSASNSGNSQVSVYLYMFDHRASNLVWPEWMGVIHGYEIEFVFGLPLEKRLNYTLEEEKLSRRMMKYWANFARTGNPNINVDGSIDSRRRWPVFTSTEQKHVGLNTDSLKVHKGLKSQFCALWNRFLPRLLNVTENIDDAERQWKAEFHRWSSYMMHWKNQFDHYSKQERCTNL
T1 sequence (P81908 whole entry): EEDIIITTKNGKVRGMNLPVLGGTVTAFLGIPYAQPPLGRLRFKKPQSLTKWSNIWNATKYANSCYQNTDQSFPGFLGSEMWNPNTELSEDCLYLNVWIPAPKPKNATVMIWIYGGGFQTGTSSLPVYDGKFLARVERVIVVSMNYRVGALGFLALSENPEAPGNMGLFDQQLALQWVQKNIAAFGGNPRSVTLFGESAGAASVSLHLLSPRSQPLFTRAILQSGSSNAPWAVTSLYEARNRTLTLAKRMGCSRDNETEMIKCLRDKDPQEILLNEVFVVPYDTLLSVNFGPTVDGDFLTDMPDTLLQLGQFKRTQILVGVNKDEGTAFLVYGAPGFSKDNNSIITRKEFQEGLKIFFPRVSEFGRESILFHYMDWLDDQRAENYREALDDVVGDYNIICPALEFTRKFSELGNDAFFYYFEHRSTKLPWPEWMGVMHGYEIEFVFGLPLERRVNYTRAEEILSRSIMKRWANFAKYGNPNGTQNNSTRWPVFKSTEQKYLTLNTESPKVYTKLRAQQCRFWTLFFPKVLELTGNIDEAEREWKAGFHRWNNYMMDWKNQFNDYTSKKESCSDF

SMILES	OH% (competition % with DMSO for hydroxyl radical) [1] [%]	ABTS% (ABTS radical scavenging activity) [2] [%]	DPPH% (DPPH scavenging ability), 20 min (DPPH radical scavenging) [%]	DPPH% (DPPH scavenging ability), 60 min (DPPH radical scavenging) [%]	inhibition at 1000 µM [3, 7] [%]	SI (selectivity index = IBuChE/IAChE) [3]	inhibition at 1000 µM [5] [%]	also measured
Cc1c(C)c2c(c(C)c1O)CCC(C)(C(=O)O)O2 (centres unmarked) [Trolox, 6-hydroxy-2,5,7,8-tetramethylchromane-2-carboxylic acid, reference compound]	82.80 ± 0.13	91.8 ± 0.17						
C[O-].C[O-].O.O=C([O-])c1cc(-c2ccc(F)cc2F)ccc1[O-].O=C([O-])c1cc(-c2ccc(F)cc2F)ccc1[O-].[Fe+3].[Fe+3].c1cnc2c(c1)ccc1cccnc12.c1cnc2c(c1)ccc1cccnc12 [Complex 1, [Fe2(difl)2(MeO)2(phen)2]∙H2O]	91.08 ± 1.81	85.38 ± 0.92	12.57 ± 0.29	15.86 ± 0.62				BuChE (I%) inhibition rate [3, 7]: 79.25 ± 2.00%; KSV Stern–Volmer constant (EB–DNA) (EB–DNA adduct (CT DNA); EB–DNA fluorescence): 6.37 (±0.40) × 10^5 M^−1; ΔI/Io (%) EB–DNA fluorescence quenching (EB–DNA adduct (CT DNA); [EB] = 20 μM, [DNA] = 26 μM, λex 540 nm, λem 592 nm): 66.8%; Kq quenching constant of the EB–DNA fluorescence (EB–DNA adduct (CT DNA); τo = 23 ns): 2.77 (±0.10) × 10^13 M^−1s^−1; solubility [4]: Soluble in DMF and DMSO; AChE (I%) inhibition rate [5]: 1.77 ± 0.82%
O=C(O)c1cc(-c2ccc(F)cc2F)ccc1O [Complex H2difl, Diflunisal]	86.06 ± 0.38	76.58 ± 0.74	10.42 ± 0.56	14.31 ± 0.45	22.9 ± 1.71	1.32	17.2 ± 1.46	half-life period of activity [6]: ~ 12 h
CC[n+]1c(-c2ccccc2)c2cc(N)ccc2c2ccc(N)cc21.[Br-] [EB, 3,8-diamino-5-ethyl-6-phenyl-phenanthridinium bromide]								Kb DNA-binding constant of the classical intercalator EB (calf-thymus (CT) DNA): 1.23 (±0.07) × 10^5 M^−1
CN(C)C(=O)Oc1cccc([N+](C)(C)C)c1 [Neo, Neostigmine methyl sulfate]					98.4 ± 1.55	1.01	96.98 ± 0.02	
O=C(O)Cc1ccccc1Nc1c(Cl)cccc1Cl [Nadicl, Sodium diclofenac]	75.46 ± 0.44	76.35 ± 0.75	18.26 ± 0.60	17.43 ± 0.23	14.1 ± 0.12	1.37	10.3 ± 1.75	
Cc1cc(C(C)(C)C)c(O)c(C(C)(C)C)c1 [BHT, butylated hydroxytoluene]			31.30 ± 0.10	60.00 ± 0.38				
CC(Cc1ccc(O)c(O)c1)C(C)Cc1ccc(O)c(O)c1 (centres unmarked) [NDGA, nordihydroguaiaretic acid]			81.02 ± 0.18	82.60 ± 0.17				
